Earlier results as cited in patent US20100069398A1, “Combination therapy” (priority 2004, published 2010).

Test system: tumour models
Conditions: once-daily oral administration, range of models

COc1cc2c(Nc3ccc(Br)cc3F)ncnc2cc1OCC1CCN(C)CC1 [ZD6474, 4-(4-bromo-2-fluoroanilino)-6-methoxy-7-(1-methylpiperidin-4-ylmethoxy)quinazoline]
anti-tumour activity: broad-spectrum anti-tumour activity
